# Earlier results, collected in patent publication US7001904B1, “Guanidine derivatives quinazoline and quinoline for use in the treatment of autoimmune diseases” (AstraZeneca AB, priority 2000, dated 2006).
# Target: EGF RTK (Homo sapiens, UniProt P00533)
# Conditions: Bioorganic & Medicinal Chemistry Letters, 1997, 7, 2723–2728
# EGF RTK, sequence (P00533 25-1210): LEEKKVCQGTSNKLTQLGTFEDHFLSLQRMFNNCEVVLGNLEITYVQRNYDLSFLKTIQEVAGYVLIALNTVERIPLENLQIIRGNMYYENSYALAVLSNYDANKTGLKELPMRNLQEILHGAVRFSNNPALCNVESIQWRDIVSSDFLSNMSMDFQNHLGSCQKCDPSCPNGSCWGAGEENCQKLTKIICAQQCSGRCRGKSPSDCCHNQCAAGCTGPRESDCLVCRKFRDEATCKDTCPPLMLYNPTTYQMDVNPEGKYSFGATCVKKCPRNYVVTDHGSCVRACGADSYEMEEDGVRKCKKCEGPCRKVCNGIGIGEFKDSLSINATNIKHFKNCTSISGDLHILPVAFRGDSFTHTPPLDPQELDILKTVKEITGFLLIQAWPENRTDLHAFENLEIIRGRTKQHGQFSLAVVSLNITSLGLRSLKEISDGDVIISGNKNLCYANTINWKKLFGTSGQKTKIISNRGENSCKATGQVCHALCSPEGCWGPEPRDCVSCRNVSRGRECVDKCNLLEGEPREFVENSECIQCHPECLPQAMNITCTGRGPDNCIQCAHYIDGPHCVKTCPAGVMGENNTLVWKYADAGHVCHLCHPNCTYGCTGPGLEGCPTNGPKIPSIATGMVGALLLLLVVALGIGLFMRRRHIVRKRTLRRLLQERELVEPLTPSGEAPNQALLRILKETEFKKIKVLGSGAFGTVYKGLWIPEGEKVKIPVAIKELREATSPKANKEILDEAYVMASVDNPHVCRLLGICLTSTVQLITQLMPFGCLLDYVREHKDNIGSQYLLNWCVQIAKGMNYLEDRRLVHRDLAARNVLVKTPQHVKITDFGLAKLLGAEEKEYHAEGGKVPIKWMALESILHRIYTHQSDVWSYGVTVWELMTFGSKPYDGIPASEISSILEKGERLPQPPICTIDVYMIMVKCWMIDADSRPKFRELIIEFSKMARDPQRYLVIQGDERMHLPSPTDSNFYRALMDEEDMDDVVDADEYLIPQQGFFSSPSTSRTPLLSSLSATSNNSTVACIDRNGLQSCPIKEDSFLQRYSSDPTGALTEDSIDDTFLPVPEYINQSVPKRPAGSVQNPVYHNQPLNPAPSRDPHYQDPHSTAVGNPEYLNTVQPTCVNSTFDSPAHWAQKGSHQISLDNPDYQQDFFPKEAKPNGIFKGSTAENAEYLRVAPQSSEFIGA
smiles,measurement,value
"COc1cc2ncnc(NC(=O)Nc3ccccc3)c2cc1OC [1-(6,7-dimethoxyquinazolin-4-yl)-3-phenylurea]",EGF RTK inhibition,inactive
